# Measurements from patent US20230123334A1, “AMINO LIPID COMPOUND, PREPARATION METHOD THEREFOR, AND APPLICATION THEREOF” (SHENZHEN SHENXIN BIOTECHNOLOGY CO., LTD., priority 2020, published 2023).
# Assays:
# HEK293 cells [1] = assay: Preliminary screening as DNA vectors, GFP transfection of HEK293 cells; assay type: cell-based; settings: HEK293 cells; lipid/DOPE liposome with 75 ng plasmid DNA (psin-EGFP-IRES-Puro); number of cells expressing GFP divided by total number of nuclei (Hoechst)
# How it was run: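 First, amino lipid and DOPE were vortexed in sodium acetate buffer (pH 5.6) to form liposomes. Next, these were held with 75 ng EGFP plasmid at room temperature for 30 min. Finally, HEK293 cells were added, cultured at 37° C., Hoechst-stained, and GFP+/total nuclei scored by imaging.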
# HEK293 cells [2] = assay: Preliminary screening as mRNA vectors, EGFP mRNA transfection of HEK293 cells; assay type: cell-based; settings: HEK293 cells, 96-well plates, EGFP mRNA 50 ng per well; percentage of GFP fluorescent cells relative to total number of cells (Hoechst)
# How it was run: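 Screening format: EGFP mRNA transfection (50 ng/well) into HEK293 in 10% FBS-supplemented DMEM. Percent green fluorescent cells, normalised to Hoechst nuclear count, gave the value; Lipofectamine2000 was the reference transfectant.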
Compound,Absolute DNA transfection efficiency in HEK293 cells (HEK293 cells [1]) [%],Absolute mRNA transfection efficiency in HEK293 cells (HEK293 cells [2]) [%]
CCCCCCCCCCCCCCSc1nc(NCCN2CCOCC2)nc(SCCCCCCCCCCC)n1 [Compound S11S14D2],0.7,0.0
CCCCCCCCCCCCCCSc1nc(NCCN2CCCC2)nc(SCCCCCCCCCCC)n1 [Compound S11S14D3],6.7,17.9
CCCCCCCCCCCCCCSc1nc(NCCN2CCCCC2)nc(SCCCCCCCCCCC)n1 [Compound S11S14D4],3.7,0.2
CCCCCCCCCCCCCCSc1nc(NCCN2CCN(C)CC2)nc(SCCCCCCCCCCC)n1 [Compound S11S14D5],5.1,9.1
CCCCCCCCCCCCCCSc1nc(NCCCN(C)C)nc(SCCCCCCCCCCC)n1 [Compound S11S14D6],6.6,30.0
CCCCCCCCCCCCCCSc1nc(NCCN(CC)CC)nc(SCCCCCCCCCCC)n1 [Compound S11S14D7],2.9,0.7
CCCCCCCCCCCCCCSc1nc(NCCCN2CCOCC2)nc(SCCCCCCCCCCC)n1 [Compound S11S14D8],8.8,4.2
CCCCCCCCCCCCCCSc1nc(NCCCN2CCN(C)CC2)nc(SCCCCCCCCCCC)n1 [Compound S11S14D9],4.1,9.9
CCCCCCCCCCCCCCSc1nc(NCC2CCN(C)CC2)nc(SCCCCCCCCCCC)n1 [Compound S11S14D10],58.1,38.5
CCCCCCCCCCCCCCCSc1nc(NCCN(C)C)nc(SCCCCCCCCCCC)n1 [Compound S11S15D1],0.9,0.0
CCCCCCCCCCCCCCCSc1nc(NCCN2CCOCC2)nc(SCCCCCCCCCCC)n1 [Compound S11S15D2],0.3,0.0
CCCCCCCCCCCCCCCSc1nc(NCCN2CCCC2)nc(SCCCCCCCCCCC)n1 [Compound S11S15D3],7.4,5.3
CCCCCCCCCCCCCCCSc1nc(NCCN2CCCCC2)nc(SCCCCCCCCCCC)n1 [Compound S11S15D4],5.3,0.9
CCCCCCCCCCCCCCCSc1nc(NCCN2CCN(C)CC2)nc(SCCCCCCCCCCC)n1 [Compound S11S15D5],4.8,17.4
CCCCCCCCCCCCCCCSc1nc(NCCCN(C)C)nc(SCCCCCCCCCCC)n1 [Compound S11S15D6],4.8,15.4
CCCCCCCCCCCCCCCSc1nc(NCCN(CC)CC)nc(SCCCCCCCCCCC)n1 [Compound S11S15D7],5.3,0.7
CCCCCCCCCCCCCCCSc1nc(NCCCN2CCOCC2)nc(SCCCCCCCCCCC)n1 [Compound S11S15D8],3.0,2.1
CCCCCCCCCCCCCCCSc1nc(NCCCN2CCN(C)CC2)nc(SCCCCCCCCCCC)n1 [Compound S11S15D9],1.8,3.6
CCCCCCCCCCCCCCCSc1nc(NCC2CCN(C)CC2)nc(SCCCCCCCCCCC)n1 [Compound S11S15D10],42.3,75.9
CCCCCCCCCCCCCCCCSc1nc(NCCN(C)C)nc(SCCCCCCCCCCC)n1 [Compound S11S16D1],0.5,2.4
CCCCCCCCCCCCCCCCSc1nc(NCCN2CCOCC2)nc(SCCCCCCCCCCC)n1 [Compound S11S16D2],0.0,0.1
CCCCCCCCCCCCCCCCSc1nc(NCCN2CCCC2)nc(SCCCCCCCCCCC)n1 [Compound S11S16D3],6.2,0.7
CCCCCCCCCCCCCCCCSc1nc(NCCN2CCCCC2)nc(SCCCCCCCCCCC)n1 [Compound S11S16D4],1.7,0.2
CCCCCCCCCCCCCCCCSc1nc(NCCN2CCN(C)CC2)nc(SCCCCCCCCCCC)n1 [Compound S11S16D5],4.9,5.1

Compound,Absolute DNA transfection efficiency in HEK293 cells (HEK293 cells [1]) [%],Absolute mRNA transfection efficiency in HEK293 cells (HEK293 cells [2]) [%]
CCCCCCCCCCCCCCCCSc1nc(NCCCN(C)C)nc(SCCCCCCCCCCC)n1 [Compound S11S16D6],2.7,9.3
CCCCCCCCCCCCCCCCSc1nc(NCCN(CC)CC)nc(SCCCCCCCCCCC)n1 [Compound S11S16D7],2.2,0.5
CCCCCCCCCCCCCCCCSc1nc(NCCCN2CCOCC2)nc(SCCCCCCCCCCC)n1 [Compound S11S16D8],4.7,0.9
CCCCCCCCCCCCCCCCSc1nc(NCCCN2CCN(C)CC2)nc(SCCCCCCCCCCC)n1 [Compound S11S16D9],3.6,16.4
CCCCCCCCCCCCCCCCSc1nc(NCC2CCN(C)CC2)nc(SCCCCCCCCCCC)n1 [Compound S11S16D10],49.0,89.2
CCCCCCCCCCCCCCCCCCSc1nc(NCCN(C)C)nc(SCCCCCCCCCCC)n1 [Compound S11S18D1],0.6,2.7
CCCCCCCCCCCCCCCCCCSc1nc(NCCN2CCOCC2)nc(SCCCCCCCCCCC)n1 [Compound S11S18D2],0.2,0.1
CCCCCCCCCCCCCCCCCCSc1nc(NCCN2CCCC2)nc(SCCCCCCCCCCC)n1 [Compound S11S18D3],4.8,11.6
CCCCCCCCCCCCCCCCCCSc1nc(NCCN2CCCCC2)nc(SCCCCCCCCCCC)n1 [Compound S11S18D4],3.3,1.4
CCCCCCCCCCCCCCCCCCSc1nc(NCCN2CCN(C)CC2)nc(SCCCCCCCCCCC)n1 [Compound S11S18D5],1.7,3.8
CCCCCCCCCCCCCCCCCCSc1nc(NCCCN(C)C)nc(SCCCCCCCCCCC)n1 [Compound S11S18D6],3.6,6.0
CCCCCCCCCCCCCCCCCCSc1nc(NCCN(CC)CC)nc(SCCCCCCCCCCC)n1 [Compound S11S18D7],3.6,1.1
CCCCCCCCCCCCCCCCCCSc1nc(NCCCN2CCOCC2)nc(SCCCCCCCCCCC)n1 [Compound S11S18D8],7.8,3.3
CCCCCCCCCCCCCCCCCCSc1nc(NCCCN2CCN(C)CC2)nc(SCCCCCCCCCCC)n1 [Compound S11S18D9],0.9,0.3
CCCCCCCCCCCCCCCCCCSc1nc(NCC2CCN(C)CC2)nc(SCCCCCCCCCCC)n1 [Compound S11S18D10],20.9,92.0
CCCCCCCCCCCCSc1nc(NCCN(C)C)nc(SCCCCCCCCCCCC)n1 [Compound S12S12D1],0.5,0.6
CCCCCCCCCCCCSc1nc(NCCN2CCOCC2)nc(SCCCCCCCCCCCC)n1 [Compound S12S12D2],0.1,0.0
CCCCCCCCCCCCSc1nc(NCCN2CCCC2)nc(SCCCCCCCCCCCC)n1 [Compound S12S12D3],2.1,11.0
CCCCCCCCCCCCSc1nc(NCCN2CCCCC2)nc(SCCCCCCCCCCCC)n1 [Compound S12S12D4],4.1,36.3
CCCCCCCCCCCCSc1nc(NCCN2CCN(C)CC2)nc(SCCCCCCCCCCCC)n1 [Compound S12S12D5],0.4,3.1
CCCCCCCCCCCCSc1nc(NCCCN(C)C)nc(SCCCCCCCCCCCC)n1 [Compound S12S12D6],3.9,2.6
CCCCCCCCCCCCSc1nc(NCCN(CC)CC)nc(SCCCCCCCCCCCC)n1 [Compound S12S12D7],3.3,1.3
CCCCCCCCCCCCSc1nc(NCCCN2CCOCC2)nc(SCCCCCCCCCCCC)n1 [Compound S12S12D8],3.4,3.8
